System: α-SMA in TGFβ1-induced hHSC
Test: α-SMA ELISA in TGFβ1-activated human primary hepatic stellate cells (single agents and combination matrix, EOB/EOHSA)
Assay type: cell-based
Conditions: single agent, 1 hour preincubation, TGFβ1 1 ng/ml, 48 hours
Protocol: Serum-deprived HSC were preincubated for 1 hour with Elafibranor (A) or Nitazoxanide (B), or Bezafibrate (C) before the activation with the profibrogenic cytokine TGFβ1 (1 ng/ml). After 48 hours of incubation, the expression of α-SMA was measured by ELISA. The obtained values were transformed into percentage inhibition over TGFβ1 control. Data are presented as mean (triplicates)±standard deviation (SD)]. The curve fitting and the calculation of half maximal inhibitory concentration (IC50) were performed with XLFit software 5.3.1.3.
Combinations were tested in a dose-response matrix format and analyzed according to the excess over Bliss (EOB) additivism model. Dilution series of Elafibranor (row) and Nitazoxanide (column) were prepared, including their respective DMSO controls. The resulting mixes were added to serum-deprived HSC, 1 hour prior to the activation with the profibrogenic cytokine TGFβ1 (1 ng/ml). […] (B) EOB scores were calculated as described in Materials and Methods. […] The total EOB score including all combinations was also calculated. […]
Combinations were tested in a dose-response matrix format and analyzed according to the excess over Bliss (EOB) additivism model. […] Percentage of α-SMA inhibition over the TGFβ1 control for all combination pairs was calculated. EOB scores were calculated as described in Materials and Methods. […]

Question: How did the “antifibrotic activity (α-SMA) in TGFβ-induced hHSC” value turn out when `O=C(Nc1ncc([N+](=O)[O-])s1)c1ccccc1O` [TZ, tizoxanide] was run?
Answer: Its value is “profile similar to the parent drug”.

Source: patent US12053456B2, “Pharmaceutical compositions for combination therapy” (GENFIT, priority 2017, dated 2024)
